Where two headings read alike, the source gives them in different places.
Experiments:
Assay type in all cases: in vivo
[1] = tested on: wheat (Triticum aestivum); experiment: Test C postemergence; settings: for Plant response rating, Wheat: scale 0 to 100
How it was run: (§1)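 Greenhouse herbicide screen, visual readout. Compound in solvent/surfactant applied preemergence at planting or postemergence to 1- to 4-leaf plants; assessed at 12–14 days on a 0–100 control scale.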

[2] = tested on: Italian ryegrass (Lolium multiflorum); experiment: Test C postemergence; settings: for Plant response rating, Ryegrass, Italian: scale 0 to 100
How it was run: as §1

[3] = tested on: windgrass (Apera spica-venti); experiment: Test C postemergence; settings: for Plant response rating, Windgrass: scale 0 to 100
How it was run: as §1

[4] = tested on: blackgrass (Alopecurus myosuroides); experiment: Test C postemergence; settings: for Plant response rating, Blackgrass: scale 0 to 100
How it was run: as §1

[5] = tested on: winter barley (Hordeum vulgare); experiment: Test C postemergence; settings: for Plant response rating, Barley: scale 0 to 100
How it was run: as §1

[6] = tested on: wild oat (Avena fatua); experiment: Test C postemergence; settings: for Plant response rating, Oat, Wild: scale 0 to 100
How it was run: as §1

[7] = tested on: downy brome (Bromus tectorum); experiment: Test C postemergence; settings: for Plant response rating, Bromegrass, Downy: scale 0 to 100
How it was run: as §1

[8] = tested on: canarygrass (Phalaris minor); experiment: Test C postemergence; settings: for Plant response rating, Canarygrass: scale 0 to 100
How it was run: as §1

[9] = tested on: green foxtail (Setaria viridis); experiment: Test C postemergence; settings: for Plant response rating, Foxtail, Green: scale 0 to 100
How it was run: as §1

[10] = tested on: goosegrass (Eleusine indica); experiment: Test C pre/postemergence; settings: Eleusine indica; for pest or weed control at 62 g/ha: 62 g ai/ha; for pest or weed control at 125 g/ha: 125 g ai/ha; for pest or weed control at 250 g/ha: 250 g ai/ha; for pest or weed control at 500 g/ha: 500 g ai/ha
How it was run: as §1

[11] = tested on: Surinam grass (Brachiaria decumbens); experiment: Test C pre/postemergence; settings: Urochloa decumbens; for pest or weed control at 125 g/ha: 125 g ai/ha; for pest or weed control at 500 g/ha: 500 g ai/ha; for pest or weed control at 62 g/ha: 62 g ai/ha; for pest or weed control at 250 g/ha: 250 g ai/ha
How it was run: as §1

[12] = tested on: corn (Zea mays); experiment: Test C pre/postemergence; settings: Zea mays; for Corn plant response rating (crop injury, 0 = no effect, 100 = complete kill) at 125 g/ha: 125 g ai/ha; for Corn plant response rating (crop injury, 0 = no effect, 100 = complete kill) at 250 g/ha: 250 g ai/ha; for Corn plant response rating (crop injury, 0 = no effect, 100 = complete kill) at 500 g/ha: 500 g ai/ha
How it was run: as §1

[13] = post-emergence, Postemergence, scale 0 to 100 (0 no effect, 100 complete control), read-out: Goosegrass plant response rating
[14] = post-emergence, Postemergence, scale 0 to 100, read-out: Plant response rating, Goosegrass
[15] = pre-emergence, Preemergence, scale 0 to 100, read-out: Plant response rating, Goosegrass
[16] = post-emergence, Postemergence, scale 0 to 100 (0 no effect, 100 complete control), read-out: Surinam Grass plant response rating
[17] = post-emergence, Postemergence, scale 0 to 100, read-out: Plant response rating, Surinam Grass
[18] = pre-emergence, Preemergence, scale 0 to 100, read-out: Plant response rating, Surinam Grass
[19] = post-emergence, Postemergence, scale 0 to 100
[20] = pre-emergence, Preemergence, scale 0 to 100

Compound: CCOC(=O)c1nc(C2CC2)nc(N)c1Cl [Compound 4, ethyl 6-amino-5-chloro-2-cyclopropyl-4-pyrimidinecarboxylate]
- Plant response rating, Wheat ([1]; 250 g ai/ha): 65
- Plant response rating, Wheat ([1]; 500 g ai/ha): 65
- plant injury at 62 g/ha ([1]; Triticum aestivum, post-emergence, 62 g ai/ha, scale 0 to 100 (0 no effect, 100 complete control), read-out: Wheat plant response rating): 50%
- plant injury at 125 g/ha ([1]; Triticum aestivum, post-emergence, 125 g ai/ha, scale 0 to 100 (0 no effect, 100 complete control), read-out: Wheat plant response rating): 60%
- Plant response rating, Ryegrass, Italian ([2]; 250 g ai/ha): 65
- Plant response rating, Ryegrass, Italian ([2]; 500 g ai/ha): 65
- pest or weed control at 62 g/ha ([2]; Lolium multiflorum, post-emergence, 62 g ai/ha, scale 0 to 100 (0 no effect, 100 complete control), read-out: Ryegrass, Italian plant response rating): 45%
- pest or weed control at 125 g/ha ([2]; Lolium multiflorum, post-emergence, 125 g ai/ha, scale 0 to 100 (0 no effect, 100 complete control), read-out: Ryegrass, Italian plant response rating): 60%
- Plant response rating, Windgrass ([3]; 250 g ai/ha): 70
- Plant response rating, Windgrass ([3]; 500 g ai/ha): 75
- pest or weed control at 62 g/ha ([3]; Apera spica-venti, post-emergence, 62 g ai/ha, scale 0 to 100 (0 no effect, 100 complete control), read-out: Windgrass plant response rating): 60%
- pest or weed control at 125 g/ha ([3]; Apera spica-venti, post-emergence, 125 g ai/ha, scale 0 to 100 (0 no effect, 100 complete control), read-out: Windgrass plant response rating): 65%
- Plant response rating, Blackgrass ([4]; 125 g ai/ha): 65
- Plant response rating, Blackgrass ([4]; 250 g ai/ha): 70
- Plant response rating, Blackgrass ([4]; 500 g ai/ha): 70
- pest or weed control at 62 g/ha ([4]; Alopecurus myosuroides, post-emergence, 62 g ai/ha, scale 0 to 100 (0 no effect, 100 complete control), read-out: Blackgrass plant response rating): 65%
- Plant response rating, Barley ([5]; 125 g ai/ha): 65
- Plant response rating, Barley ([5]; 250 g ai/ha): 65
- Plant response rating, Barley ([5]; 500 g ai/ha): 65
- plant injury at 62 g/ha ([5]; Hordeum vulgare, post-emergence, 62 g ai/ha, scale 0 to 100 (0 no effect, 100 complete control), read-out: Barley plant response rating): 30%
- Plant response rating, Oat, Wild ([6]; 250 g ai/ha): 70
- Plant response rating, Oat, Wild ([6]; 500 g ai/ha): 70
- pest or weed control at 62 g/ha ([6]; Avena fatua, post-emergence, 62 g ai/ha, scale 0 to 100 (0 no effect, 100 complete control), read-out: Oat, Wild plant response rating): 60%
- pest or weed control at 125 g/ha ([6]; Avena fatua, post-emergence, 125 g ai/ha, scale 0 to 100 (0 no effect, 100 complete control), read-out: Oat, Wild plant response rating): 65%
- Plant response rating, Bromegrass, Downy ([7]; 125 g ai/ha): 60
- Plant response rating, Bromegrass, Downy ([7]; 250 g ai/ha): 65
- Plant response rating, Bromegrass, Downy ([7]; 500 g ai/ha): 70
- pest or weed control at 62 g/ha ([7]; Bromus tectorum, post-emergence, 62 g ai/ha, scale 0 to 100 (0 no effect, 100 complete control), read-out: Bromegrass, Downy plant response rating): 45%
- Plant response rating, Canarygrass ([8]; 125 g ai/ha): 45
- Plant response rating, Canarygrass ([8]; 250 g ai/ha): 60
- Plant response rating, Canarygrass ([8]; 500 g ai/ha): 60
- pest or weed control at 62 g/ha ([8]; Phalaris minor, post-emergence, 62 g ai/ha, scale 0 to 100 (0 no effect, 100 complete control), read-out: Canarygrass plant response rating): 35%
- Plant response rating, Foxtail, Green ([9]; 250 g ai/ha): 70
- Plant response rating, Foxtail, Green ([9]; 500 g ai/ha): 75
- pest or weed control at 62 g/ha ([9]; Setaria viridis, post-emergence, 62 g ai/ha, scale 0 to 100 (0 no effect, 100 complete control), read-out: Foxtail, Green plant response rating): 65%
- pest or weed control at 125 g/ha ([9]; Setaria viridis, post-emergence, 125 g ai/ha, scale 0 to 100 (0 no effect, 100 complete control), read-out: Foxtail, Green plant response rating): 70%
- pest or weed control at 62 g/ha [10, 13]: 0%
- pest or weed control at 125 g/ha [10, 13]: 20%
- pest or weed control at 250 g/ha [10, 14]: 65%
- pest or weed control at 500 g/ha [10, 14]: 75%
- pest or weed control at 62 g/ha ([10]; pre-emergence, Preemergence, scale 0 to 100, 0 no effect, 100 complete control, read-out: Plant response rating, Goosegrass): 0%
- pest or weed control at 125 g/ha [10, 15]: 25%
- pest or weed control at 250 g/ha [10, 15]: 55%
- pest or weed control at 500 g/ha [10, 15]: 65%
- pest or weed control at 125 g/ha [11, 16]: 75%
- pest or weed control at 500 g/ha [11, 17]: 95%
- pest or weed control at 62 g/ha [11, 16]: 60%
- pest or weed control at 250 g/ha [11, 17]: 75%
- pest or weed control at 62 g/ha ([11]; pre-emergence, Preemergence, scale 0 to 100, 0 no effect, 100 complete control, read-out: Plant response rating, Surinam Grass): 0%
- pest or weed control at 125 g/ha [11, 18]: 65%
- pest or weed control at 250 g/ha [11, 18]: 85%
- pest or weed control at 500 g/ha [11, 18]: 100%
- Corn plant response rating (crop injury, 0 = no effect, 100 = complete kill) at 62 g/ha ([12]; post-emergence, Postemergence, 62 g ai/ha, scale 0 to 100 (0 no effect, 100 complete control), read-out: Corn plant response rating): 0%
- Corn plant response rating (crop injury, 0 = no effect, 100 = complete kill) at 125 g/ha ([12]; post-emergence, Postemergence, scale 0 to 100 (0 no effect, 100 complete control), read-out: Corn plant response rating): 80%
- Corn plant response rating (crop injury, 0 = no effect, 100 = complete kill) at 250 g/ha [12, 19]: 90%
- Corn plant response rating (crop injury, 0 = no effect, 100 = complete kill) at 500 g/ha [12, 19]: 95%
- Corn plant response rating (crop injury, 0 = no effect, 100 = complete kill) at 125 g/ha ([12]; pre-emergence, Preemergence, scale 0 to 100, read-out: Plant response rating, Corn): 0%
- Corn plant response rating (crop injury, 0 = no effect, 100 = complete kill) at 250 g/ha [12, 20]: 75%
- Corn plant response rating (crop injury, 0 = no effect, 100 = complete kill) at 500 g/ha [12, 20]: 90%

— patent US8802597B2, “Herbicidal pyrimidines” (E I du Pont de Nemours and Company, priority 2003, dated 2014)
